Assay results: patent publication US5441983A, “Treatment of infection by enveloped virus with calix(N)arene compounds” (Genelabs Incorporated, priority 1992, dated 1995)
≈ marks a conversion by molar mass, not a printed value.

Assays:
coagulation = experiment: Anti-coagulant activity after oral and intravenous administration; type: in vivo; details: protamine sulfate intravenous
Protocol: One of the considerations in the administering the composition, particularly when the drug is administered parenterally or orally, is systemic side effects. Studies conducted in support of the present invention indicate that the calix(n)arene compound, particularly the sulfonic acid compound, may show anti-coagulant activity after oral and intravenous administration. […] The protamine administration is timed to correspond to highest blood levels of the calix(n)arene compounds. In a typical method, a dose of protamine equivalent to about 1 mg per 100 heparin anticoagulant units is administered intravenously simultaneously with IV administration of the calix(n)arene, or 1-2 hours after oral administration of the macrocyclic drug. It is generally recommended that protamine be infused slowly (i.e., not more than a total of 50 mg/10 minutes).

HSV-1 [1] = experiment: Plaque reduction assay, HSV-1, Vero cells; type: cell-based, HSV-1 (Kos-1)
Protocol: (§1) used in Table 3 were further tested for activity against HSV infection in
(§2) a plaque reduction assay, as detailed in Example 6. Here Vero cells, after
(§3) overnight incubation, were exposed to serial dilutions of KY compound,
(§4) from 0.625-10 μg/ml, and HSV-1 or HSV-2 virus for two hours. After
(§5) washing to remove drug and extracellular virus, the cells were further
(§6) incubated for 2 days, then stained and counted for plaque formation.
(§7) Percent inhibition was determined by dividing plaques produced by total
(§8) number of plaques in infected, untreated controls. From the concentration
(§9) effect curve of plaque inhibition (expressed as percent of control), the
(§10) concentration of compound required to produce 50% plaque reduction,
(§11) IC50, was determined. The IC50 values for infection by HSV-1 and
(§12) HSV-2 infection is given in the right-hand columns in Table 3. With

HSV-2 [2] = experiment: Plaque reduction assay, HSV-2, Vero cells; type: cell-based, HSV-2 (333); details: Human alphaherpesvirus 2, Vero
Protocol: as §1, §2, §3, §4, §5, §6, §7, §8, §9, §10, §11, §12

HSV-1 [3] = experiment: HSV-1 viral yield inhibition by combined drug exposure; type: cell-based; details: HSV-1, FIG. 34A
Source text: With either drug alone, a maximum decrease in viral yield was slightly less than three logs (orders of magnitude).
Two days later, the medium was removed.

HSV-1 [4] = experiment: Topical treatment of ocular HSV-1 infection, rabbits
Protocol: New Zealand white rabbits were acclimated for a minimum of two days prior to inoculation to allow the animals to accommodate to conditions in the vivarium facility. After the accommodation period, animals received a slit lamp ocular examination to exclude any animals with preexisting anterior segment ocular defects. Animals were bilaterally inoculated topically with an 80 μl drop of Minimal Essential Medium (MEM; Gibco) containing 10^5 pfu/ml McKrae strain HSV-1; eyes were massaged for 30 seconds. Animals were replaced individually in cages.
On day 4 post inoculation (PI), animals were evaluated by slit lamp microscopy. Corneal epithelial, iris, and conjunctival disease were graded on an increasing scale of severity from 0+ to 4+. After evaluation, animals were divided into 4 groups of 5 animals with matched corneal, stromal and conjunctival involvement. Topical therapy was initiated immediately after animal grouping. Therapy groups included:
Group #1: 5 rabbits, Y-1 topical therapy (6.25 μg/50 μl) 5×/dayfor 4 days;
Group #2: 5 rabbits, Y-1 topical therapy (12.5 μg/50 μl) 5×/dayfor 4 days;
Group #3: 5 rabbits, Y-1 topical therapy (18.75 μg/50 μl) 5×/day for 4 days;
Group #4: 5 rabbits, placebo therapy (sterile water) 5×/day for 5 days.
All Y-1 doses were formulated to contain these concentrations in a volume of 50 μl (a standard eye drop).
Topical therapy with 0-19 μg Y-1 in 50 μl was initiated on day 4 post-inoculation (PI) and continued to day 7 PI. All animals received daily ocular slit lamp evaluations from day 3 through day 7 PI. The ocular HSV-1 induced disease severity was recorded daily.
Eyes of all animals were additionally sampled for the presence of infectious HSV-1 on days 0 (pre-inoculation), 3, 5, and 7 PI. Briefly, tear film was obtained by swabbing the lower and upper conjunctival sacs and retaining the swab in the nasal fornix for 10 seconds. The swabs were eluted individually in Hank's Buffered Saline (HBSS, Gibco Laboratories). Fifty microliter aliquots of the virus-HBSS eluate was adsorbed onto confluent HFF cell monolayers for 5 minutes. Monolayers were hydrated with Minimal Essential Medium (MEM; Gibco Laboratories), incubated at 37° C. and observed daily for two weeks to detect cytopathology consistent with HSV infection (HSV CPE).
On day 7 PI (sacrifice), the corneal epithelium was scraped from the eyes and HSV was recovered on HFF cell monolayers. Corneal epithelial co-cultures were evaluated daily by inverted light microscopy.

HIV-HXB = experiment: Inhibition of syncytia formation, HIV-HXB (HTLV-IIIB)
Protocol: Briefly, cells chronically infected with HTLV-IIIB or RF-II HIV strains were incubated in the presence of serial dilutions of the selected KY compound, then further cocultured with indicator cells. The extent of syncytia formation was scored under phase microscopy.
Representative calix(n)arene compounds from Table 2 were tested for inhibition of cytopathic effects in cells infected with one of two HTLV-III strains, HTLV-IIIB and RF-II strains, as described in Example 12, and in the subsection above.
Human CD4^+ indicator cells (VB) and chronically infected H9 cells were maintained in RPMI-1640 medium supplemented with 5% fetal calf serum, 100 Units of penicillin per ml and 100 μg of streptomycin per ml at 37° C. in a humidified incubator containing 7% CO2.
For the fusion assay, serial dilutions between 1:2 and 1:2^8 of a selected KY compound, 1 mg/ml in PBS were made in a 96 well round bottom plate. The diluted KY compound was transferred to a 96 well flat-bottom plate. To each well was added 25 μg chronically infected H9 cells (at 2×10^6, cells/ml), or cells chronically infected with RF-II strain HIV, followed by incubation at 37° C. for 45 minutes. To each well was then added 25 μl VB cells (about 5×10^4 cells), and the cells and virus isolates were cocultured for 18 hours in a humid 5% CO2 atmosphere.

HSV-1 and HSV-2 = experiment: Viral yield inhibition, HeLa cells, plaque count on Vero cells; details: virus yield or CPE assays
Protocol: The ability of selected naphthalene-subunit compounds to inhibit HSV-1 and HSV-2 viral yields at selected drug concentrations up to 10 μg/ml was assessed in the viral inhibition assay described in Example 7. Briefly, cultured Hela cells were exposed to serially diluted KY compound and virus, allowed to grow for 24 hours, then freeze/thawed 3 times to release virus particles. Vero cells were infected serial dilutions of the viral lysates were assayed for plaque counts as described in Example 6.
1×10^6 HeLa S3 were plated in 25 T flasks in 5 ml RPMI-1640+5% FCS+P/S. 24 hours later, the medium was aspirated and replaced with 6×10^6 PFU HSV-1 or HSV-2, and serial dilutions of selected KY compounds, at 10, 5, 2.5, 1.25, and 0.625 μg/ml drug. After growth at 37° C. for 24 hours in 2 ml of RPMI-1640 containing 2% FCS and P/S, the cells were frozen at -70° C. until the time for titration. The cells were freeze/thawed 3 times to release virus from the cells, and serially diluted 10 fold.
1×10^5 Vero cells were plated in each well of 24 well multi-dish in 1 ml RPMI-1640+5% FCS+P/S+0.1% methylcellulose (15 cps). On the second day, after removal of the medium, the 10 fold serially diluted virus in 100 μl was added in duplicate. […] The plaques formed were counted and the titer was calculated from the fold of dilutions.

HSV-2 [5] = experiment: Topical treatment of genital HSV-2 infection, guinea pigs, second study
Protocol: In another study using the guinea pig genital model described above, animals were infected with HSV-2, then treated with KY-1 or Y-1 topically at concentrations of 2% or 5% drug. […] Animals were treated and scored daily for severity of infection for 19 days.
The MS strain of HSV-2 was utilized for the experimental animal infection. Female Hartley strain guinea pigs (Charles River Breeding Laboratories, Kingston, NY) weighing 250-300 g were inoculated intravaginally with 2.0×10^5 plaque-forming units of HSV-2 one hour after being swabbed for removal of vaginal secretions.
Formulations of KY-1 or Y-1 were prepared by dissolving the compound in a 1.5% methyl cellulose solution such that final concentration of compound was 2% or 5% (wt/wt). Control animals were given either no treatment (N=10 animals) or treatment with placebo (1.5% methylcellulose solution).
To determine the effect of therapy on the development and spread of external genital lesions, lesion severity was scored on a 0-5+ scale through the primary infection period (19-21 days). Lesion score-day areas and virus titer-day areas under the curve, and peak lesion scores and peak virus titers between untreated and placebo-treated or placebo-treated and drug-treated animals were compared using the Mann-Whitney U range sum test. A p-value of 0.05 or less was considered significant.
Animals were scored daily for 19 days following inoculation for presence of lesions and severity of lesions (on a 0-5+ point scale). Lesion scores were tabulated as area under the curve of daily lesion score vs. time (days) and peak lesion score observed. A known antiviral agent, acyclovir (ACV) was administered in a 5% formulation to 8 animals as a positive control in the study.

Compound: protamine sulfate
- blocking of anticoagulant effect of calix(n)arene (coagulation): effectively blocked

Compound: O=S(=O)(O)c1cc2c(O)c(c1)Cc1cc(S(=O)(=O)O)cc(c1O)Cc1cc(S(=O)(=O)O)cc(c1O)Cc1cc(S(=O)(=O)O)cc(c1O)Cc1cc(S(=O)(=O)O)cc(c1O)Cc1cc(S(=O)(=O)O)cc(c1O)Cc1cc(S(=O)(=O)O)cc(c1O)Cc1cc(S(=O)(=O)O)cc(c1O)C2 [Y-1]
- IC50 (HSV-1 [1]; Human alphaherpesvirus 1, Vero, plaque reduction, Vero cells): 7 µg/mL (≈ 4.7 µM)
- relative anti-HSV activity, in words (HSV-1 [1]; plaque reduction HSV-1 and HSV-2): somewhat more active than the corresponding n=4 and n=6 compounds
- IC50 (HSV-2 [2]): 7.2 µg/mL (≈ 4.83 µM)
- maximum decrease in viral yield, either drug alone (HSV-1 [3]): less than three
- ocular disease, 12.5 μg/50 μl (HSV-1 [4]; 12.5 μg/50 μl topical): most effective ocular therapy
- corneal epithelial HSV-1 induced disease, 18.75 μg/50 μl (HSV-1 [4]; 18.75 μg/50 μl topical): effective in reducing the development of corneal epithelial HSV-1induced disease
- toxicity to corneal epithelial surface, conjunctiva, iris and stroma (HSV-1 [4]; 18.75 μg/50 μl, days 6 and 7): somewhat toxic to the corneal epithelial surface and to the conjunctiva, iris and stroma
- ocular disease severity versus placebo (HSV-1 [4]; all concentrations, topical): effective in reducing the development of HSV-1 induced ocular disease
- viral titer in epithelial scrapings (HSV-1 [4]; day 7): dose-dependent reduction in viral titer
- relative activity against HXB strain, in words (HIV-HXB; HXB strain): comparable activities against the HXB strain
- IC50 (HIV-HXB; Human immunodeficiency virus 1, read-out: HIV-HXB IC50): 16 µg/mL (≈ 10.7 µM)
- ED90 concentration (HSV-1 and HSV-2): 12.5 μg/50 μl
- lesions versus placebo, in words (HSV-2 [5]; 2% or 6%, 6 h treatment): reduced numbers of animals exhibiting lesions, decreased mean lesion scores and decreased peak lesion score
- % Animals with Lesions (HSV-2 [5]; 2%, 6 h): 66.7%
- Lesion Score (AUC) (HSV-2 [5]; 2%, 6 h): 16.9
- Mean Peak lesion score (HSV-2 [5]; 2%, 6 h): 1.8
- % Animals with Lesions (HSV-2 [5]; 2%, 24 h): 60%
- Lesion Score (AUC) (HSV-2 [5]; 2%, 24 h): 22.0
- Mean Peak lesion score (HSV-2 [5]; 2%, 24 h): 2.3
- % Animals with Lesions (HSV-2 [5]; 6%, 6 h): 30%
- Lesion Score (AUC) (HSV-2 [5]; 6%, 6 h): 8.1
- Mean Peak lesion score (HSV-2 [5]; 6%, 6 h): 1.2
- % Animals with Lesions (HSV-2 [5]; 6%, 24 h): 40%
- Lesion Score (AUC) (HSV-2 [5]; 6%, 24 h): 14.7
- Mean Peak lesion score (HSV-2 [5]; 6%, 24 h): 1.8
- lesions, in words (HSV-2 [5]; 24 hours post-infection, 6% KY-1 or Y-1, 2% KY-1): reduced numbers of lesion bearing animals and reduced severity of lesions
